The numbers were not newly measured in US9044505B2, “Multimeric biotinidase resistant multimodality probes” (priority 2012, dated 2015), which cites them from elsewhere.

The test system of this data set is (strept)avidin. Particulars: (strept)avidin-biotin interaction.

For `O=C(O)CCCC[C@@H]1SC[C@@H]2NC(=O)N[C@@H]21` [biotin], the Ka is given as 10^15 M.
